US20250228807A1, “TRANEXAMIC CLASS ARGININE AND HISTIDINE MIMICS AS THERAPEUTIC AGENTS” (Tranexamic Technologies, LLC, priority 2022, published 2025)
Entries after “also recorded” stand apart in the source; their conditions may differ.

Experiments:
[1] = system: MDA-MB 468 triple-negative breast cancer cells; assay: MTT cell viability assay; assay type: cell-based; details: MDA-MB-468, 72 h, relative to TA
Protocol: Effects of compounds on cell viability. MDA-MB 468 triple-negative breast cancer cells were plated at 6,250 cells per well in a 96-well plate and incubated overnight at 37° C. Cell viability was evaluated using the MTT (3-(4,5-dimethylthiazol-2-yl)-2,5-diphenyltetrazolium bromide) assay carried out according to manufacturer's instructions.

[2] = Aqueous solubility / preparation of solutions in PBS buffer; assay type: physicochemical; details: for solubility: concentration of solution: PBS buffer
Protocol: Chemical synthesis and solubility. TA was purchased from commercial sources and TA-NAc was prepared straightforwardly through acetylation of TA based on standard practices.
TA-R1-R4 were accessible from their corresponding amino acids through treatment with methylisothiourea hemisulfate. […] Esterification of TA-R1 to produce TA-R1OMe, a novel compound, improved the solubility for preparation of a 2% (w/v) solution in phosphate buffered saline (PBS) buffer (pH=7.4) and biological testing.
The requisite amino acids for synthesis of TA-R3/R4 required multistep synthetic approaches. Briefly, the preparation of TA-R3, a novel compound, began from cis-1,3-cyclohexanedicarboxylic acid and proceeded through eight sequential synthetic steps to afford the product as its HCl salt. Protection/deprotection of the amino group was required to facilitate purification, as was a stepwise oxidation sequence from the alcohol to the carboxylic acid. […] The approach to TA-R4, a known compound, required one additional step to produce the starting dicarboxylic acid, in this case through oxidative cleavage of norbornene. […] All the final compounds were fully characterized by ^1H nuclear magnetic resonance (NMR), ^13C NMR, and high-resolution electrospray ionization mass spectrometry (HRMS-ESI).

[3] = system: programmed death-ligand 1 (PD-L1); assay: Immunoblot analysis of treated MDA-MB-468 cells: PD-L1 expression; assay type: cell-based; details: high (2%) concentration
Description: (§1) Biochemical evaluation of treatment of breast cancer cells with TA-R2. […] This is important because PD-L1 expression in cancer cells blocks T-cell-based immunity. So, TA-R2 would be predicted to increase anticancer immunity in immunocompetent systems. Histone acetyltransferase (HAT) enzyme assays were used to determine if TA-R2 inhibits p300 activity. […] This fits with the hypothesis that TAs act in part by inhibiting acetyltransferases such as p300/CPB that acetylate histones. No acetylation is observed in controls upon omission of H3/p300 or acetyl coenzyme A (Acetyl CoA).

recombinant p300 = target: T1, recombinant p300 (Homo sapiens, UniProt Q09472); assay: p300 histone acetyltransferase (HAT) enzyme assay; assay type: biochemical; details: for p300 acetylation of Histone 3 (H3) in vitro: recombinant p300, Histone H3, tritiated acetyl CoA, TA at 2%
T1 construct: purchased
Protocol: Inhibition of p300 acetyltransferase activity. p300 enzyme assays were carried out with TA, TA-NAc, and TA-R2 using commercially available recombinant p300, and recombinant, commercial Histone H3 and tritiated acetyl CoA as the substrates. P300 assays were performed in the presence of increasing concentrations of each compound and acetylation of […] was evaluated by scintillation counting of Histone H3 adsorbed to 1 cm×1 cm nitrocellulose squares, after extensive washing of the nitrocellulose squares with 20% trichloroacetic acid.
as §1

MYC oncogene = assay: Immunoblot analysis of treated MDA-MB-468 cells: MYC expression; assay type: cell-based
Description: as §1

T1 sequence (Q09472 whole entry, species assumed): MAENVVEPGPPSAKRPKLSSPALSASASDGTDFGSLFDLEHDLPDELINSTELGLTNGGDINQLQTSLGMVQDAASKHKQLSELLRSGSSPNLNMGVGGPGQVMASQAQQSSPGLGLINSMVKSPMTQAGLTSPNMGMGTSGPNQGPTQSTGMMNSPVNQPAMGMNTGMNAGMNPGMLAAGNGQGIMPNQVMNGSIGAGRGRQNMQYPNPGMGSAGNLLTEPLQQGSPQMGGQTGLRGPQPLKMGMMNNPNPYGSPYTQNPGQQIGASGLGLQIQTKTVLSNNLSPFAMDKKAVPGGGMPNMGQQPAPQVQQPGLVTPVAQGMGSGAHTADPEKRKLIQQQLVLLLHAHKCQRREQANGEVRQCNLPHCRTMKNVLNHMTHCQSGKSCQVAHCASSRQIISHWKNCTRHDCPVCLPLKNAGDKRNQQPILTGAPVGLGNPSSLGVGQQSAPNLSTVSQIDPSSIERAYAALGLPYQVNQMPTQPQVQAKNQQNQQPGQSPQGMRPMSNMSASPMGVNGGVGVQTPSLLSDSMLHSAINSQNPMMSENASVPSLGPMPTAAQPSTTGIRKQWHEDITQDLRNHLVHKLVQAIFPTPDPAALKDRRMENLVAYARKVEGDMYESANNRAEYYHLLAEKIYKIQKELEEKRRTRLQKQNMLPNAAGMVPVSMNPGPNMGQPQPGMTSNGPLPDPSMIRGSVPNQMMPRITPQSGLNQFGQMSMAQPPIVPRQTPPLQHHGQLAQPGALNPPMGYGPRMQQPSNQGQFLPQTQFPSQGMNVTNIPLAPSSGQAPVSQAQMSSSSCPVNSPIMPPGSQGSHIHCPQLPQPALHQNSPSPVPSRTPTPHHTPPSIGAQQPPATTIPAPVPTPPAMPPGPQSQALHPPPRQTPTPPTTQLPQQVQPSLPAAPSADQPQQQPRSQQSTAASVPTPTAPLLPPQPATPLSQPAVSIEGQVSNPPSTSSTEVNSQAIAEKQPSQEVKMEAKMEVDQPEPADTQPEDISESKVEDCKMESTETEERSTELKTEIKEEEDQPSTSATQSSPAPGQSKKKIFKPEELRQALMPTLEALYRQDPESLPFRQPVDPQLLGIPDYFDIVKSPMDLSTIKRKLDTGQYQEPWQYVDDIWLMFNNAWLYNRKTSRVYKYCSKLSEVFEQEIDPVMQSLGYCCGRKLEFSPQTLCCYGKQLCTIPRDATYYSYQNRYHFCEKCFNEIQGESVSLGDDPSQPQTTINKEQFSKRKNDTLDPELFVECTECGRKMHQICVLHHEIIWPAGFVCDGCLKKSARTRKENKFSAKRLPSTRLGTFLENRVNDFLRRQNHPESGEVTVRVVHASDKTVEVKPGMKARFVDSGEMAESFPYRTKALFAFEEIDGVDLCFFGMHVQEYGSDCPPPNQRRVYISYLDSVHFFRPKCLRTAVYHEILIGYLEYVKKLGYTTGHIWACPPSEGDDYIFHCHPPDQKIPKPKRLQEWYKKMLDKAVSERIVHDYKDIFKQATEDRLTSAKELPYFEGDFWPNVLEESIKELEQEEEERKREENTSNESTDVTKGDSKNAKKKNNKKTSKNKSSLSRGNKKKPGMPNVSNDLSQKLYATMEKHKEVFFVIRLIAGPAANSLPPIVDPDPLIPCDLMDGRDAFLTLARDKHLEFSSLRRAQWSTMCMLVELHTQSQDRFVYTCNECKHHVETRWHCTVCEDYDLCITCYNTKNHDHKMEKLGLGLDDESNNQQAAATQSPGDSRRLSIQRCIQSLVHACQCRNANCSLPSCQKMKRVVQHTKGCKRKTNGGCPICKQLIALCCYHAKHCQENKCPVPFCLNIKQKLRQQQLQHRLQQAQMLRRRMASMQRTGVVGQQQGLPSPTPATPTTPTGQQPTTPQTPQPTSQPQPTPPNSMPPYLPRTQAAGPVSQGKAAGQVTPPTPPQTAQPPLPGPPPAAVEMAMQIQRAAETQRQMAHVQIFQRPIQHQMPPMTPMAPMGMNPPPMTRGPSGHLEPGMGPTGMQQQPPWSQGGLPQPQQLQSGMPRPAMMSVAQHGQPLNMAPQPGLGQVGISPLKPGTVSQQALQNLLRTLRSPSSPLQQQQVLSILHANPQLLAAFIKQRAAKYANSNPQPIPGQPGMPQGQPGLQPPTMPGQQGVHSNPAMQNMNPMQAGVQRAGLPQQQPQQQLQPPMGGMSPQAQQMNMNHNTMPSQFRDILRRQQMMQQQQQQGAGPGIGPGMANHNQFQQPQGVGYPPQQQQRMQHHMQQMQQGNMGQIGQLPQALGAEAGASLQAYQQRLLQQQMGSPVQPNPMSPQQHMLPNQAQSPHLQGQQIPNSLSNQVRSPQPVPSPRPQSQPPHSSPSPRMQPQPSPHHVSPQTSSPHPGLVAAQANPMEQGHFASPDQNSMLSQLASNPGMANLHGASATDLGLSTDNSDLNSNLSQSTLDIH

| SMILES | solubility: concentration of solution [2] | aqueous solubility (in words) [2] | fold lower IC50 than TA (cytotoxicity) [1] | PD-L1 expression [3] | also measured |
| --- | --- | --- | --- | --- | --- |
| CC(=O)NCC1CCC(C(=O)[O-])CC1.[Na+] (stereo not drawn) [TA-NAc, reference compound] | – | better aqueous solubility | – | do not | – |
| NC[C@H]1CC[C@H](C(=O)O)CC1 [TA, Tranexamic acid, reference compound] | – | – | – | do not | p300 acetylation of Histone 3 (H3) in vitro (recombinant p300): does not affect |
| Cl.N=C(N)N[C@H]1CC[C@H](C(=O)O)CC1 [TA-R2, amino(((1r,4r)-4-carboxycyclohexyl)amino)methaniminium chloride] | – | good aqueous solubility | – | decreases programmed death-ligand 1 (PD-L1) | histone acetylation at 2% (w/v) compared with TA (recombinant p300; 2% (w/v)): reduced histone acetylation to a greater extent than TA; p300 acetylation of Histone 3 (H3) in vitro (recombinant p300): decreases histone acetylation more strongly than the other two compounds; expression of the MYC oncogene at 0.5% (MYC oncogene; 0.5%): downregulated MYC; expression of the MYC oncogene at 2% (w/v) (MYC oncogene; 2% (w/v), compared with TA): downregulated expression of the MYC oncogene; expression of the MYC oncogene (MYC oncogene; compared with TA and TA-NAc at the same concentrations): decreases expression of the MYC oncogene to a greater extent than TA or NAc-TA |
| COC(=O)[C@H]1CC[C@H](CNC(=N)N)CC1.Cl [TA-R1-OMe, amino((((1r,4r)-4-(methoxycarbonyl)cyclohexyl)methyl)amino)methaniminium chloride] | – | – | approximately 10 fold | – | solubility: concentration of solution prepared ([2]; phosphate buffered saline (PBS) buffer (pH=7.4)): 2 % (w/v) |
| Cl.N=C(N)NC[C@H]1CCC[C@@H](C(=O)O)C1 (relative stereo) [TA-R3, cis-amino(((3-carboxycyclohexyl)methyl)amino)methaniminium chloride] | ~0.1% | insolubility; also recorded: poor aqueous solubility | approximately 10 fold | – | – |

The next lines start with results.

| solubility: concentration of solution [2] | aqueous solubility (in words) [2] | SMILES | fold lower IC50 than TA (cytotoxicity) [1] | PD-L1 expression [3] | also measured |
| --- | --- | --- | --- | --- | --- |
| ca. 2% | – | COC(=O)[C@@H]1CCC[C@H](CNC(=N)N)C1.Cl (relative stereo) [TA-R3-OMe, cis-amino(((3 (methoxycarbonyl)cyclohexyl)methyl)amino)methaniminium chloride] | approximately 10 fold | – | – |
| ca. 2% | sufficient solubility | N=C(N)NC[C@@H]1CC[C@H](C(=O)O)C1 (relative stereo) [TA-R4, cis-3-(guanidinomethyl)cyclopentane-1-carboxylic acid] | – | – | – |
| – | poor aqueous solubility | N=C(N)NC[C@H]1CC[C@H](C(=O)O)CC1 [TA-R1, trans-4-guanidinomethylcyclohexanecarboxylic acid] | – | – | – |
